Data: patent US20240294545A1 (CSPC Zhongqi Pharmaceutical Technology (Shijiazhuang) Co., …, priority 2020, published 2024)

Target: ATM (Homo sapiens (Human), UniProt Q13315)
Assay: Caliper mobility shift assay for ATM
Type: biochemical
Settings: read-out: IC50 of inhibitory activity on ATM kinase
Method: 1.2 Determination of the Inhibitory Activities of Compounds on ATM: Caliper Mobility Shift Assay for ATM
To a 96-well plate, 98 μL of DMSO and 2 μL of the 10 mM stock solution were added and mixed evenly so that the concentration of the solution was 200 μM.
Based on the inhibitory rates of the compound at different concentrations, IC50 was calculated according to the formula: Y=Bottom+(Top−Bottom)/(1+(IC50/X)^HillSlope).

Sequence of ATM (Q13315 whole entry): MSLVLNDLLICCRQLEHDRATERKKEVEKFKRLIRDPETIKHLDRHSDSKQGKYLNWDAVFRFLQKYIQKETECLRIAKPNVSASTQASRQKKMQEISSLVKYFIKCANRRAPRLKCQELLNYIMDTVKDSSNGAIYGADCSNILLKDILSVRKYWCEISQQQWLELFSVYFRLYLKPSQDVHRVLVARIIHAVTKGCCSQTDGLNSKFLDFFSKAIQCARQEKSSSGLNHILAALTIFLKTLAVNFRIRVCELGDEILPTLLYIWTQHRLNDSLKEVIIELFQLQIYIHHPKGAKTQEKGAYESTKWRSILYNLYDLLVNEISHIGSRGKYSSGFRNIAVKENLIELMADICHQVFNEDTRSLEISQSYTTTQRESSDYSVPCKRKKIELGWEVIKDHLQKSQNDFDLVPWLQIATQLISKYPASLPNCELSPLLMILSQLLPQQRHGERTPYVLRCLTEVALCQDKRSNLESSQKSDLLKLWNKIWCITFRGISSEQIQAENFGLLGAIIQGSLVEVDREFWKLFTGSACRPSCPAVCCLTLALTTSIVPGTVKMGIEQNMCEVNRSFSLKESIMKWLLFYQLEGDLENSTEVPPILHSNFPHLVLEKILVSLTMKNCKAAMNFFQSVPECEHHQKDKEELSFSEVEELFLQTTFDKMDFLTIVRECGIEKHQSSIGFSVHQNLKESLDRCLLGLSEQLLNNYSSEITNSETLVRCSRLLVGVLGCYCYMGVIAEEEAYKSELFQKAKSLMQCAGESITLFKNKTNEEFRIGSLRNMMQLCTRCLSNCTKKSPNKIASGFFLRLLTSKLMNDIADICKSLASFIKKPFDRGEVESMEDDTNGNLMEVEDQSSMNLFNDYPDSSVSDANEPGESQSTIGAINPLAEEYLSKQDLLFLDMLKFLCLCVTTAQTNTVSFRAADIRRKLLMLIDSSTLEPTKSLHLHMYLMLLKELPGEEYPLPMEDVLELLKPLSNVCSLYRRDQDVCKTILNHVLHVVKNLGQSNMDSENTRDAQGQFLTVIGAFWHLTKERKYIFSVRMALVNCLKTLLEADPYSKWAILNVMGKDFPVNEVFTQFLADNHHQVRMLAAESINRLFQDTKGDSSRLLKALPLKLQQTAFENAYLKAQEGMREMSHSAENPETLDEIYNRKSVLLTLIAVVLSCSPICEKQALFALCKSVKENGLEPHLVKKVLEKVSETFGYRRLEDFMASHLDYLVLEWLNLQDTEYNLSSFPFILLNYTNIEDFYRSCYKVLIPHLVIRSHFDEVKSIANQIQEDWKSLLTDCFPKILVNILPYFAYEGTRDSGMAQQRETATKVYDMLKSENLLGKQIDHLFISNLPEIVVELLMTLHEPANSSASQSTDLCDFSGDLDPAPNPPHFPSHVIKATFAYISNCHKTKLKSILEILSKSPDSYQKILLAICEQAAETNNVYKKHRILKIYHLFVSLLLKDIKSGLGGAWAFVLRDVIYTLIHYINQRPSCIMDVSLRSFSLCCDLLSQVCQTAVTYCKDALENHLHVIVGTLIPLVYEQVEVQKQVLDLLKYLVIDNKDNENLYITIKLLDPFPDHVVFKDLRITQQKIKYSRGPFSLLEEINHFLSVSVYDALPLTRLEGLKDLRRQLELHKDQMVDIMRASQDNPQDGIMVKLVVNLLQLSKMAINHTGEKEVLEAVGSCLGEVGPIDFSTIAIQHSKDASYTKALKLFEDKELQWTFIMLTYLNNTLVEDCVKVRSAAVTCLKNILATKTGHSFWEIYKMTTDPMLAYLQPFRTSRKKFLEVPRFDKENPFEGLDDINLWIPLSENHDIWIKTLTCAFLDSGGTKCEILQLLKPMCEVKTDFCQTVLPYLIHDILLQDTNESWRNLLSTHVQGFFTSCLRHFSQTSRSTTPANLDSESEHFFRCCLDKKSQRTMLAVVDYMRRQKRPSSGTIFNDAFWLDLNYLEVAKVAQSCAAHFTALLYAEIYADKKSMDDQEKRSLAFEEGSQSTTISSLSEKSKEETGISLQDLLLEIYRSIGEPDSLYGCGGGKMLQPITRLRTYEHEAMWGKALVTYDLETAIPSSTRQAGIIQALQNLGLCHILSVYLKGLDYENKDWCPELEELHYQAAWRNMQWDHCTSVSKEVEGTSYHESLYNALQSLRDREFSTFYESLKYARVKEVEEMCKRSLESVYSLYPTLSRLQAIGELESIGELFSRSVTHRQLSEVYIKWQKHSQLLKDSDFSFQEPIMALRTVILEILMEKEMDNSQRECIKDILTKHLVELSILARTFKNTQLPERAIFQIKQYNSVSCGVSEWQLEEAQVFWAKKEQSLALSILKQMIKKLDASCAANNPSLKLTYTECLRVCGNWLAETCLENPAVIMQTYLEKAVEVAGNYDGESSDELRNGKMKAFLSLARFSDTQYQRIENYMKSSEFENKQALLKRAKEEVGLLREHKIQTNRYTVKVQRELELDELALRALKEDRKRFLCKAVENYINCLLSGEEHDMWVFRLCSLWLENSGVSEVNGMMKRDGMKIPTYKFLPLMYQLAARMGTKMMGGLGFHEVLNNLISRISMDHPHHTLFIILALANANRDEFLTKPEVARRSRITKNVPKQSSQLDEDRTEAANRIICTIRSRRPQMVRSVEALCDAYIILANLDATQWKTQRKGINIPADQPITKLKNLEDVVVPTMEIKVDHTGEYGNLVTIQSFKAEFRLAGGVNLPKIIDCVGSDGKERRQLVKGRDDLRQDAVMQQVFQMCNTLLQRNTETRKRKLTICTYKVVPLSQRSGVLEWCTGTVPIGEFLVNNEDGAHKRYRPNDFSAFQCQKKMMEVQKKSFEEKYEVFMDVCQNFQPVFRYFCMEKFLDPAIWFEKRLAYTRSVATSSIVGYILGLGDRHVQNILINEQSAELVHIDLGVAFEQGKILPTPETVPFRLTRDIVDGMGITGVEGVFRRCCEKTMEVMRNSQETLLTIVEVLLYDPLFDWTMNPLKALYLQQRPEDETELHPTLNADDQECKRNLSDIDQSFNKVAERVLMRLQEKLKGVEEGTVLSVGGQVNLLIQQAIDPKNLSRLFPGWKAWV

Structure (SMILES) | IC50 [nM]
Cn1c(=O)n2c3c4c(c(-c5ccc(OCCCN6CCCCC6)nc5)c(F)cc4ncc31)OCCC2 [Compound A-154] | 0.71
C[C@H]1COc2c(-c3ccc(OCCCN4CCCCC4)nc3)c(F)cc3ncc4c(c23)n1c(=O)n4C [Example A-1, (S)-6-fluoro-2,10-dimethyl-7-(6-(3-(piperidin-1-yl)propoxy)pyridin-3-yl)-9,10-dihydro-8-oxa-2,4,10a-triazanaphtho[2,1,8-cde]azulen-1(2H)-one] | 0.79
C[C@@H]1COc2c(-c3ccc(OCCCN4CCCCC4)nc3)c(F)cc3ncc4c(c23)n1c(=O)n4C [Example A-4, (R)-6-fluoro-2,10-dimethyl-7-(6-(3-(piperidin-1-yl)propoxy)pyridin-3-yl)-9,10-dihydro-8-oxa-2,4,10a-triazanaphtho[2,1,8-cde]azulen-1(2H)-one] | 0.9
CC(C)C[C@H]1COc2c(-c3ccc(OCCCN4CCCCC4)nc3)c(F)cc3ncc4c(c23)n1c(=O)n4C [Example A-9, (S)-6-fluoro-10-isobutyl-2-methyl-7-(6-(3-(piperidin-1-yl)propoxy)pyridin-3-yl)-9,10-dihydro-8-oxa-2,4,10a-triazanaphtho[2,1,8-cde]azulen-1(2H)-one] | 0.2
Cn1c(=O)n2c3c4c(c(-c5ccc(OCCCN6CCCCC6)nc5)c(F)cc4ncc31)OCC21CC1 [Example A-11, 6-fluoro-2-methyl-7-(6-(3-(piperidin-1-yl)propoxy)pyridin-3-yl)-2,9-dihydro-1H-spiro[8-oxa-2,4,10a-triazanaphtho[2,1,8-cde]azulene-10,1-cyclopropan]-1-one] | 0.54
Cn1c(=O)n2c3c4c(c(-c5ccc(OCCCN6CCCCC6)nc5)c(F)cc4ncc31)OC[C@@H]2Cc1ccccc1 [Example A-13, (S)-10-benzyl-6-fluoro-2-methyl-7-(6-(3-(piperidin-1-yl)propoxy)pyridin-3-yl)-9,10-dihydro-8-oxa-2,4,10a-triazanaphtho[2,1,8-cde]azulen-1(2H)-one] | 0.4
Cn1c(=O)n2c3c4c(c(-c5ccc(OCCCN6CCCCC6)nc5)c(F)cc4ncc31)OC[C@H]2Cc1ccccc1 [Example A-14, (R)-10-benzyl-6-fluoro-2-methyl-7-(6-(3-(piperidin-1-yl)propoxy)pyridin-3-yl)-9,10-dihydro-8-oxa-2,4,10a-triazanaphtho[2,1,8-cde]azulen-1(2H)-one] | 0.42
CC[C@H]1COc2c(-c3ccc(OCCCN4CCCCC4)nc3)c(F)cc3ncc4c(c23)n1c(=O)n4C [Example A-23, (S)-10-ethyl-6-fluoro-2-methyl-7-(6-(3-(piperidin-1-yl)propoxy)pyridin-3-yl)-9,10-dihydro-8-oxa-2,4,10a-triazanaphtho[2,1,8-cde]azulen-1(2H)-one] | 0.42
Cn1c(=O)n2c3c4c(c(-c5ccc(OCCCN6CCCCC6)nc5)c(F)cc4ncc31)OCC2C1CC1 (stereo not drawn) [Example A-27, 10-cyclopropyl-6-fluoro-2-methyl-7-(6-(3-(piperidin-1-yl)propoxy)pyridin-3-yl)-9,10-dihydro-8-oxa-2,4,10a-triazanaphtho[2,1,8-cde]azulen-1(2H)-one] | 0.28
Cn1c(=O)n2c3c4c(c(-c5ccc(OCCCN6CC[C@H](C#N)C6)nc5)c(F)cc4ncc31)OCC21CCC1 [Example A-160] | 0.43

The next lines start with the values.

IC50 [nM] | Structure (SMILES)
0.28 | Cn1c(=O)n2c3c4c(c(-c5ccc(OCCCN6CCCCC6)nc5)c(F)cc4ncc31)OCC21CCC1 [Example A-28, 6-fluoro-2-methyl-7-(6-(3-(piperidin-1-yl)propoxy)pyridin-3-yl)-2,9-dihydro-1H-spiro[8-oxa-2,4,10a-triazanaphtho[2,1,8-cde]azulene-10,1′-cyclobutan]-1-one]
0.27 | COc1cc2ncc3c4c2c(c1-c1cnn(C)c1)OCC(c1ccccn1)n4c(=O)n3C (stereo not drawn) [Example A-30, 6-methoxy-2-methyl-7-(1-methyl-1H-pyrazol-4-yl)-10-(pyridin-2-yl)-9,10-dihydro-8-oxa-2,4,10a-triazanaphtho[2,1,8-cde]azulen-1(2H)-one]
0.94 | COc1cc2ncc3c4c2c(c1-c1ccc(OCCCN2CCCCC2)nc1)OC[C@@H](C)n4c(=O)n3C [Example A-32, (R)-6-methoxy-2,10-dimethyl-7-(6-(3-(piperidin-1-yl)propoxy)pyridin-3-yl)-9,10-dihydro-8-oxa-2,4,10a-triazanaphtho[2,1,8-cde]azulen-1(2H)-one]
0.86 | COCC1COc2c(-c3ccc(OCCCN4CCCCC4)nc3)c(F)cc3ncc4c(c23)n1c(=O)n4C (stereo not drawn) [Example A-49, 6-fluoro-10-(methoxymethyl)-2-methyl-7-(6-(3-(piperidin-1-yl)propoxy)pyridin-3-yl)-9,10-dihydro-8-oxa-2,4,10a-triazanaphtho[2,1,8-cde]azulen-1(2H)-one]
0.26 | Cn1c(=O)n2c3c4c(c(-c5ccc(OCCCN6CCCCC6)nc5)ccc4ncc31)OCC2(C)C [Example A-67, 2,10,10-trimethyl-7-(6-(3-(piperidin-1-yl)propoxy)pyridin-3-yl)-9,10-dihydro-8-oxa-2,4,10a-triazanaphtho[2,1,8-cde]azulen-1(2H)-one]
0.92 | C[C@H]1COc2c(-c3ccc(N4CCC(N(C)C)CC4)nc3)c(F)cc3ncc4c(c23)n1c(=O)n4C [Example A-159, (S)-7-(6-(4-(dimethylamino)piperidin-1-yl)pyridin-3-yl)-6-fluoro-2,10-dimethyl-9,10-dihydro-8-oxa-2,4,10a-triazanaphtho[2,1,8-cde]azulen-1(2H)-one]
0.32 | Cn1c(=O)n2c3c4c(c(-c5ccc(OCCCN6CC[C@H](F)C6)nc5)c(F)cc4ncc31)OCC21CCC1 [Example A-161, (S)-6-fluoro-7-(6-(3-(3-fluoropyrrolidin-1-yl)propoxy)pyridin-3-yl)-2-methyl-2,9-dihydro-1H-spiro[8-oxa-2,4,10a-triazanaphtho[2,1,8-cde]azulene-10,1′-cyclobutan]-1-one]
0.36 | Cn1c(=O)n2c3c4c(c(-c5ccc(OCCCN6CCCC6)nc5)c(F)cc4ncc31)OCC21CCC1 [Example A-162, 6-fluoro-2-methyl-7-(6-(3-(pyrrolidin-1-yl)propoxy)pyridin-3-yl)-2,9-dihydro-1H-spiro[8-oxa-2,4,10a-triazanaphtho[2,1,8-cde]azulene-10,1′-cyclobutan]-1-one]
0.42 | C[C@H]1COc2c(-c3ccc(OCCCN4CCC5(CC4)COC5)nc3)c(F)cc3ncc4c(c23)n1c(=O)n4C [Example A-171, (S)-7-(6-(3-(2-oxa-7-azaspiro[3.5]nonan-7-yl)propoxy)pyridin-3-yl)-6-fluoro-2,10-dimethyl-9,10-dihydro-8-oxa-2,4,10a-triazanaphtho[2,1,8-cde]azulen-1(2H)-one]
0.17 | Cn1c(=O)n2c3c4c(c(-c5ccc(OCCCN6CCCCC6)nc5)ccc4ncc31)OCC21CCC1 [Example A-176, 2-methyl-7-(6-(3-(piperidin-1-yl)propoxy)pyridin-3-yl)-2,9-dihydro-1H-spiro[8-oxa-2,4,10a-triazanaphtho[2,1,8-cde]azulene-10,1′-cyclobutan]-1-one]
0.25 | C[C@H]1COc2c(-c3ccc(OCCCN(C)C)nc3)ccc3ncc4c(c23)n1c(=O)n4C [Example A-178, (S)-7-(6-(3-(dimethylamino)propoxy)pyridin-3-yl)-2,10-dimethyl-9,10-dihydro-8-oxa-2,4,10a-triazanaphtho[2,1,8-cde]azulen-1(2H)-one]
